Data as given in patent US9539233B2, “Gallium formulation for the treatment and prevention of infectious diseases” (Aridis Pharmaceuticals Inc., priority 2009, dated 2017).
Converted amounts (≈) assume the structure as drawn. Read-outs that look alike come from different tables or passages of the source.

Experiments:
P. aeruginosa = settings: for MIC: iron-starved BM-2 broth
B. anthracis 7702 cells = type: cell-based; settings: 1:1 gallium-to-citrate molar ratio, approximately 20 hours of growth
Pa [1] = settings: against Pa; cited from earlier work
Pa [2] = settings: i.t. inoculation of a lethal dose of Pa followed by nasal instillation of a bolus of liquid; mouse; cited from earlier work

C[C@H]1[C@H](NC(=O)/C(=N\OC(C)(C)C(=O)O)c2csc(N)n2)C(=O)N1S(=O)(=O)O [Aztreonam]
susceptibility category (R/S/I) (P. aeruginosa; Mucoid Strain 20JR): S
susceptibility category (R/S/I) (P. aeruginosa; Mucoid Strain 35LK): S
susceptibility category (R/S/I) (P. aeruginosa; Mucoid Strain 41JQ): R
susceptibility category (R/S/I) (P. aeruginosa; Mucoid Strain 47JS): I
susceptibility category (R/S/I) (P. aeruginosa; Mucoid Strain 62LL): R
susceptibility category (R/S/I) (P. aeruginosa; Mucoid Strain 96JC): R
susceptibility category (R/S/I) (P. aeruginosa; Mucoid Strain 97JE): R
susceptibility category (R/S/I) (P. aeruginosa; Non-mucoid Strain 9HN): R
susceptibility category (R/S/I) (P. aeruginosa; Non-mucoid Strain 30IX): S
susceptibility category (R/S/I) (P. aeruginosa; Non-mucoid Strain 30JS): S
susceptibility category (R/S/I) (P. aeruginosa; Non-mucoid Strain 38LL): R
susceptibility category (R/S/I) (P. aeruginosa; Non-mucoid Strain 39IV): R
susceptibility category (R/S/I) (P. aeruginosa; Non-mucoid Strain 46IV): R
susceptibility category (R/S/I) (P. aeruginosa; Non-mucoid Strain 55HY): I

O=[N+]([O-])[O-].O=[N+]([O-])[O-].O=[N+]([O-])[O-].[Ga+3] [Gallium, gallium nitrate]
OD600 nm (B. anthracis 7702 cells; Gallium concentration 6.8 μM, TSB, 37° C.): 0.000
OD600 nm (B. anthracis 7702 cells; Gallium concentration 23.3 μM): 0.000
OD600 nm (B. anthracis 7702 cells; Gallium concentration 27.1 μM): 0.001
OD600 nm (B. anthracis 7702 cells; Gallium concentration 88.9 μM): 0.003
OD600 nm (B. anthracis 7702 cells; Gallium concentration 614.8 μM): 0.000
OD600 nm (B. anthracis 7702 cells; Gallium concentration 1709.9 μM): 0.000
bactericidal concentration (MBC) (Pa [1]): approximately 0.7 μg/mL
minimum inhibitory concentration (MIC90) (Pa [1]): approximately 0.7 μg/mL
protection (Pa [2]): good protection
MIC (P. aeruginosa; Mucoid Strain 20JR, 24 hours): <1 µg/mL
MIC (P. aeruginosa; Mucoid Strain 35LK, 24 hours): <1 µg/mL
MIC (P. aeruginosa; Mucoid Strain 41JQ, 24 hours): <32 µg/mL
MIC (P. aeruginosa; Mucoid Strain 47JS, 24 hours): <1 µg/mL
MIC (P. aeruginosa; Mucoid Strain 62LL, 24 hours): <1 µg/mL
MIC (P. aeruginosa; Mucoid Strain 96JC, 24 hours): <1 µg/mL
MIC (P. aeruginosa; Mucoid Strain 97JE, 24 hours): <1 µg/mL
MIC (P. aeruginosa; Non-mucoid Strain 9HN, 24 hours): <2 µg/mL
MIC (P. aeruginosa; Non-mucoid Strain 30IX, 24 hours): <1 µg/mL
MIC (P. aeruginosa; Non-mucoid Strain 30JS, 24 hours): <1 µg/mL
MIC (P. aeruginosa; Non-mucoid Strain 38LL, 24 hours): <1 µg/mL
MIC (P. aeruginosa; Non-mucoid Strain 39IV, 24 hours): <1 µg/mL
MIC (P. aeruginosa; Non-mucoid Strain 46IV, 24 hours): <1 µg/mL
MIC (P. aeruginosa; Non-mucoid Strain 55HY, 24 hours): <1 µg/mL

NC[C@H]1O[C@H](O[C@H]2[C@H](O)[C@@H](O[C@H]3O[C@H](CO)[C@@H](O)[C@H](N)[C@H]3O)[C@H](N)C[C@@H]2N)[C@H](N)C[C@@H]1O [Tobramycin]
susceptibility category (R/S/I) (P. aeruginosa; Mucoid Strain 20JR): S
susceptibility category (R/S/I) (P. aeruginosa; Mucoid Strain 35LK): I
susceptibility category (R/S/I) (P. aeruginosa; Mucoid Strain 41JQ): R
susceptibility category (R/S/I) (P. aeruginosa; Mucoid Strain 47JS): R
susceptibility category (R/S/I) (P. aeruginosa; Mucoid Strain 62LL): S
susceptibility category (R/S/I) (P. aeruginosa; Mucoid Strain 96JC): R
susceptibility category (R/S/I) (P. aeruginosa; Mucoid Strain 97JE): R
susceptibility category (R/S/I) (P. aeruginosa; Non-mucoid Strain 9HN): R
susceptibility category (R/S/I) (P. aeruginosa; Non-mucoid Strain 30IX): R
susceptibility category (R/S/I) (P. aeruginosa; Non-mucoid Strain 30JS): S
susceptibility category (R/S/I) (P. aeruginosa; Non-mucoid Strain 38LL): I
susceptibility category (R/S/I) (P. aeruginosa; Non-mucoid Strain 39IV): S
susceptibility category (R/S/I) (P. aeruginosa; Non-mucoid Strain 46IV): R
susceptibility category (R/S/I) (P. aeruginosa; Non-mucoid Strain 55HY): R
MIC (P. aeruginosa; Pseudomonas aeruginosa, 24 h, Non-mucoid Strain 9HN): 128 µg/mL (≈ 274 µM)
MIC (P. aeruginosa; Pseudomonas aeruginosa, 24 h, Non-mucoid Strain 55HY): 128 µg/mL (≈ 274 µM)
